Results on 1 compound are retold here after patent publication US12527801B2, “Cell activator of animal cell” (Vitamin C60 BioResearch Corporation, priority 2019, dated 2026).

The assay has as its system Normal human epidermal keratinocytes. Briefly: Action of activating epidermal cells (MTT reduction). To be noted: for Index (%) Mean ± S.D.: 48 h, untreated cells = 100. Type of assay: cell-based. How it is done: Normal human epidermal keratinocytes were seeded on 96-well plates at the density of 5.0×10^3 cells/well using a HuMedia KG2 medium (KG2). 24 hours after seeding, the above-mentioned medium was replaced with a HuMedia KB2 medium (KB2) comprising the test sample. AOH and AHX (2-azahypoxanthine) were used as test samples, KG2 as a positive control (P. C.) for the cell activating action was treated instead of the test sample, and cells which were not treated with the samples were used as a negative control. After culturing for 48 hours, the above-mentioned medium was replaced with KB2 comprising 0.2 mg/mL of MTT to perform culturing for 1 hour. After removing the medium, the absorbance at 550 nm and 650 nm of the cell lysate in which 2-propanol was added to lyse the cells was measured. The amount of MTT reduced to blue formazan was obtained by subtracting the absorbance at 650 nm, which was derived from the cell turbidity, from the absorbance at 550 nm. The action of activating epidermal keratinocytes was shown as Index (%), which is a percentage of the absorbance of the cells, which was treated with the test samples, to the absorbance of the cells, which was not treated with the samples (negative control), with the amount of MTT reduced as an index.

For `O=c1[nH]nnc2[nH]cnc12` [AHX, 7H-imidazo[4,5-d][1,2,3]triazin-4(3H)-one, reference compound], the “Index (%) Mean ± S.D.” value by setting is: (3.9 μg/mL) 100.6 ± 3%; (7.8 μg/mL) 96.1 ± 2.7%; (15.6 μg/mL) 94 ± 5.9%; (31.3 μg/mL) 87.1 ± 4.5%; (62.5 μg/mL) 80.2 ± 1.8%; (125 μg/mL) 77.4 ± 2^ %. In addition, the “Index (%) Mean ± S.D.” value is on record as 78.4 ± 1.8% (250 μg/mL) and 74.2 ± 1.9% (500 μg/mL). The “change in Index” value (concentration of 31.3 μg/mL or more) is given as “significantly reduced”. Further, the “proliferative effect / cell activating action” value (epidermal keratinocytes) is “did not have a proliferative effect”.
